The structures appear in SMILES notation.

This assay deals with T1, HIV-integrase (Human immunodeficiency virus type 1 group M subtype B, UniProt P12497).
T1 construct: Recombinant integrase (0.26 ng) was incubated with the beads
In words: HIV-Integrase Inhibition Activity (SPA bead integration assay with P33 labeled target DNA). Format: biochemical. The note with it: recombinant integrase, class symbols; read-out: in vitro activity. In outline: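 Biotinylated substrate DNA on streptavidin SPA beads loaded with recombinant integrase (90 min, 37° C), washed, then inhibitor plus 0.1 fmol P33-labeled target DNA added. Reaction stopped with 10 mM EDTA; integration measured as CPM by scintillation, giving IC50 ranks.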
In the case of `COCCN(C)C(=O)C(=O)NC12CCC(CC1)Cn1c2nc(C(=O)NCc2ccc(F)c(C)c2)c(O)c1=O` [Example 134, N′-(2-((4-Fluoro-3-methylbenzyl)carbamoyl)-3-hydroxy-4-oxo-6,7,8,9-tetrahydro-7,10-ethanopyrimido[1,2-a]azepin-10(4H)-yl)-N-(2-methoxyethyl)-N-methylethanediamide], the IC50 was under 0.01 µM.
As to `COCCN(C)C(=O)C(=O)NC12CCC(CC1)Cn1c2nc(C(=O)NCc2ccc(F)c(Cl)c2)c(O)c1=O` [Example 135, N′-(2-((3-Chloro-4-fluorobenzyl)carbamoyl)-3-hydroxy-4-oxo-6,7,8,9-tetrahydro-7,11-ethanopyrimido[1,2-a]azepin-10(4H)-yl)-N-(2-methoxyethyl)-N-methylethanediamide], the IC50 was under 0.01 µM.
Take `Cn1cncc1CN1CCN(C(=O)C(=O)NC23CCC(CC2)Cn2c3nc(C(=O)NCc3ccc(F)cc3)c(O)c2=O)CC1` [Example 136, N-(4-Fluorobenzyl)-3-hydroxy-10-(((4-((1-methyl-1H-imidazol-5-yl)methyl)-1-piperazinyl)(oxo)acetyl)amino)-4-oxo-4,6,7,8,9,10-hexahydro-7,10-ethanopyrimido[1,2-a]azepine-2-carboxamide]: the IC50 was under 0.01 µM.
Turning to `Cn1ccnc1CN1CCN(C(=O)C(=O)NC23CCC(CC2)Cn2c3nc(C(=O)NCc3ccc(F)cc3)c(O)c2=O)CC1` [Example 137, N-(4-Fluorobenzyl)-3-hydroxy-10-(((4-((1-methyl-1H-imidazol-2-yl)methyl)-1-piperazinyl)(oxo)acetyl)amino)-4-oxo-4,6,7,8,9,10-hexahydro-7,10-ethanopyrimido[1,2-a]azepine-2-carboxamide], the IC50 was under 0.01 µM.
Regarding `Cc1cc(C(=O)N2CCN(C(=O)C(=O)NC34CCC(CC3)Cn3c4nc(C(=O)NCc4ccc(F)cc4)c(O)c3=O)CC2)no1` [Example 139, N-(4-Fluorobenzyl)-3-hydroxy-10-(((4-((5-methyl-3-isoxazolyl)carbonyl)-1-piperazinyl)(oxo)acetyl)amino)-4-oxo-4,6,7,8,9,10-hexahydro-7,10-ethanopyrimido[1,2-a]azepine-2-carboxamide], the IC50 is under 0.01 µM.
Consider `O=C(NC12CCC(CC1)Cn1c2nc(C(=O)NCc2ccc(F)cc2)c(O)c1=O)C(=O)N1CCN(C(=O)c2ccccn2)CC1` [Example 140, N-(4-Fluorobenzyl)-3-hydroxy-4-oxo-10-((oxo(4-(2-pyridinylcarbonyl)-1-piperazinyl)acetyl)amino)-4,6,7,8,9,10-hexahydro-7,10-ethanopyrimido[1,2-a]azepine-2-carboxamide], for which the IC50 was under 0.01 µM.
As to `COCC(=O)N1CCN(C(=O)C(=O)NC23CCC(CC2)Cn2c3nc(C(=O)NCc3ccc(F)cc3)c(O)c2=O)CC1` [Example 141, N-(4-Fluorobenzyl)-3-hydroxy-10-(((4-(methoxyacetyl)-1-piperazinyl)(oxo)acetyl)amino)-4-oxo-4,6,7,8,9,10-hexahydro-7,10-ethanopyrimido[1,2-a]azepine-2-carboxamide], the IC50 was under 0.01 µM.
As to `O=C(NC12CCC(CC1)Cn1c2nc(C(=O)NCc2ccc(F)cc2)c(O)c1=O)C(=O)N1CCN(C(=O)c2cccs2)CC1` [Example 142, N-(4-Fluorobenzyl)-3-hydroxy-4-oxo-10-((oxo(4-(2-thiophenylcarbonyl)-1-piperazinyl)acetyl)amino)-4,6,7,8,9,10-hexahydro-7,10-ethanopyrimido[1,2-a]azepine-2-carboxamide], the IC50 is under 0.01 µM.
Take `O=C(NC12CCC(CC1)Cn1c2nc(C(=O)NCc2ccc(F)cc2)c(O)c1=O)C(=O)N1CCN(C(=O)c2ccco2)CC1` [Example 143, N-(4-Fluorobenzyl)-10-(((4-(2-furanylcarbonyl)-1-piperazinyl)(oxo)acetyl)amino)-3-hydroxy-4-oxo-4,6,7,8,9,10-hexahydro-7,10-ethanopyrimido[1,2-a]azepine-2-carboxamide]: the IC50 is under 0.01 µM.
As for `CS(=O)(=O)N1CCN(C(=O)N2CCN(C(=O)C(=O)NC34CCC(CC3)Cn3c4nc(C(=O)NCc4ccc(F)cc4)c(O)c3=O)CC2)C1=O` [Example 144, N-(4-Fluorobenzyl)-3-hydroxy-10-(((4-((3-(methylsulfonyl)-2-oxo-1-imidazolidinyl)carbonyl)-1-piperazinyl)(oxo)acetyl)amino)-4-oxo-4,6,7,8,9,10-hexahydro-7,10-ethanopyrimido[1,2-a]azepine-2-carboxamide], the figure is under 0.01 µM.
The figure for `CN(C)S(=O)(=O)N1CCN(C(=O)C(=O)NC23CCC(CC2)Cn2c3nc(C(=O)NCc3ccc(F)cc3)c(O)c2=O)CC1` [Example 145, 10-(((4-(Dimethylsulfamoyl)-1-piperazinyl)(oxo)acetyl)amino)-N-(4-fluorobenzyl)-3-hydroxy-4-oxo-4,6,7,8,9,10-hexahydro-7,10-ethanopyrimido[1,2-a]azepine-2-carboxamide] is under 0.01 µM; for `Cc1noc(C)c1S(=O)(=O)N1CCN(C(=O)C(=O)NC23CCC(CC2)Cn2c3nc(C(=O)NCc3ccc(F)cc3)c(O)c2=O)CC1` [Example 146, 10-(((4-((3,5-Dimethyl-4-isoxazolyl)sulfonyl)-1-piperazinyl)(oxo)acetyl)amino)-N-(4-fluorobenzyl)-3-hydroxy-4-oxo-4,6,7,8,9,10-hexahydro-7,10-ethanopyrimido[1,2-a]azepine-2-carboxamide] it is under 0.01 µM; for `COC(=O)c1sccc1S(=O)(=O)N1CCN(C(=O)C(=O)NC23CCC(CC2)Cn2c3nc(C(=O)NCc3ccc(F)cc3)c(O)c2=O)CC1` [Example 147, Methyl 3-((4-(((2-((4-fluorobenzyl)carbamoyl)-3-hydroxy-4-oxo-6,7,8,9-tetrahydro-7,10-ethanopyrimido[1,2-a]azepin-10(4H)-yl)amino) (oxo)acetyl)-1-piperazinyl)sulfonyl)-2-thiophenecarboxylate] it is under 0.01 µM.
On to `Cn1cnc(S(=O)(=O)N2CCN(C(=O)C(=O)NC34CCC(CC3)Cn3c4nc(C(=O)NCc4ccc(F)cc4)c(O)c3=O)CC2)c1` [Example 148, N-(4-Fluorobenzyl)-3-hydroxy-10-(((4-((1-methyl-1H-imidazol-4-yl)sulfonyl)-1-piperazinyl)(oxo)acetyl)amino)-4-oxo-4,6,7,8,9,10-hexahydro-7,10-ethanopyrimido[1,2-a]azepine-2-carboxamide], for which the IC50 is under 0.01 µM.
The figure for `O=C(NC12CCC(CC1)Cn1c2nc(C(=O)NCc2ccc(F)cc2)c(O)c1=O)C(=O)N1CCN(S(=O)(=O)c2ccc(S(=O)(=O)N3CCOCC3)cc2)CC1` [Example 149, N-(4-Fluorobenzyl)-3-hydroxy-10-(((4-((4-(4-morpholinylsulfonyl)phenyl)sulfonyl)-1-piperazinyl)(oxo)acetyl)amino)-4-oxo-4,6,7,8,9,10-hexahydro-7,10-ethanopyrimido[1,2-a]azepine-2-carboxamide] is under 0.01 µM.
As to `CN(C)C12CCC(CC1)Cn1c2nc(C(=O)NCc2ccc(F)cc2)c(O)c1=O` [Example 150, 10-(Dimethylamino)-N-(4-fluorobenzyl)-3-hydroxy-4-oxo-4,6,7,8,9,10-hexahydro-7,10-ethanopyrimido[1,2-a]azepine-2-carboxamide], the IC50 was over 0.1 µM.
`CN(C(=O)C(=O)N1CCCC1)C12CCC(CC1)Cn1c2nc(C(=O)NCc2ccc(F)cc2)c(O)c1=O` [Example 153, N-(4-Fluorobenzyl)-3-hydroxy-10-(methyl(oxo(1-pyrrolidinyl)acetyl)amino)-4-oxo-4,6,7,8,9,10-hexahydro-7,10-ethanopyrimido[1,2-a]azepine-2-carboxamide]: the IC50 is under 0.01 µM.
Turning to `Cc1cc(C(=O)N(C)C23CCC(CC2)Cn2c3nc(C(=O)NCc3ccc(F)cc3)c(O)c2=O)no1` [Example 154, N-(4-Fluorobenzyl)-3-hydroxy-10-(methyl((5-methyl-3-isoxazolyl)carbonyl)amino)-4-oxo-4,6,7,8,9,10-hexahydro-7,10-ethanopyrimido[1,2-a]azepine-2-carboxamide], the IC50 was under 0.01 µM.
Turning to `CN(C12CCC(CC1)Cn1c2nc(C(=O)NCc2ccc(F)cc2)c(O)c1=O)S(C)(=O)=O` [Example 155, N-(4-Fluorobenzyl)-3-hydroxy-10-(methyl(methylsulfonyl)amino)-4-oxo-4,6,7,8,9,10-hexahydro-7,10-ethanopyrimido[1,2-a]azepine-2-carboxamide], the IC50 was under 0.01 µM.
For the compound `Cc1cc(CNC(=O)c2nc3n(c(=O)c2O)CC2CCC3(N(C)C(=O)C(=O)N(C)C)CC2)ccc1F` [Example 156, N-(2-((4-Fluoro-3-methylbenzyl)carbamoyl)-3-hydroxy-4-oxo-6,7,8,9-tetrahydro-7,10-ethanopyrimido[1,2-a]azepin-10(4H)-yl)-N,N′,N′-trimethylethanediamide], the IC50 is under 0.01 µM.
Turning to `CN(C)C(=O)C(=O)N(C)C12CCC(CC1)Cn1c2nc(C(=O)NCc2ccc(F)cc2)c(O)c1=O` [Example 157, N-(2-((4-Fluorobenzyl)carbamoyl)-3-hydroxy-4-oxo-6,7,8,9-tetrahydro-7,10-ethanopyrimido[1,2-a]azepin-10(4H)-yl)-N,N′,N′-trimethylethanediamide], the IC50 was under 0.01 µM.
On to `CN(C)C(=O)C(=O)N(C)C12CCC(CC1)Cn1c2nc(C(=O)NCc2ccc(F)c(Cl)c2)c(O)c1=O` [Example 158, N-(2-((3-Chloro-4-fluorobenzyl)carbamoyl)-3-hydroxy-4-oxo-6,7,8,9-tetrahydro-7,10-ethanopyrimido[1,2-a]azepin-10(4H)-yl)-N,N′,N′-trimethylethanediamide], for which the IC50 is under 0.01 µM.
Turning to `CN(C)C(=O)C(=O)N(C)C12CCC(CC1)Cn1c2nc(C(=O)NCc2ccc(F)c(F)c2)c(O)c1=O` [Example 159, N-(2-((3,4-Difluorobenzyl)carbamoyl)-3-hydroxy-4-oxo-6,7,8,9-tetrahydro-7,10-ethanopyrimido[1,2-a]azepin-10(4H)-yl)-N,N′,N′-trimethylethanediamide], the IC50 is under 0.01 µM.

These data come from US8129398B2 (priority 2008, dated 2012).
